We go through nine compounds from patent US6355669B1, “Retinoic acid agonists as preventive and therapeutic agents for nephritis” (Eisai Co., Ltd., priority 1997, dated 2002).

For experiment [1], the system named is accelerated Masugi nephritis. Kind of experiment: Rat model with accelerated Masugi nephritis (proteins excreted in urine for 24 hours). It is filed as in vivo, Sprague-Dawley strain rats. Particulars: dose 0.3 mg/kg, oral once every day; compared with the control group; 0.3 mg/kg. The procedure:
Sprague-Dawley strain rats were immunized by subcutaneously administering rabbit γ-globulin in a dose of 4 mg/rat along with Freund's complete adjuvant into the bottoms of their both hind legs. On the 5th day after the rats were immunized, 1 ml of anti-rat glomerular basement membrane rabbit serum diluted 6- or 8-fold was administered via tail veins into the animals. On the 8th day, the rats were forced to be orally administered 8 ml sterilized water and then placed in a metabolism cage, and their urine was collected for 24 hours during which the animals were allowed neither food nor water. As the indicator of the model with accelerated Masugi nephritis, the amount of proteins excreted in urine for 24 hours was used.
(§1) The medium was administered into the control group.

The subject of experiment [2] is anti-dinitrophenyl (DNP) IgG2a antibody titer. Kind of experiment: Mouse model producing antibody (anti-DNP IgG2a antibody titer in serum, ELISA). It is filed as in vivo, BALB/c mice. Particulars: dose 0.1 mg/kg oral once every day for 10 days; 10th day after immunization. The procedure: BALB/c mice were immunized by administering dinitrophenylated keyhole limpet hemocyanin (DNP-KLH) as antigen intraperitoneally into them in a dose of 100 μg/mouse along with Freund's complete adjuvant. On the 10th day after the day on which the mice were immunized, blood was collected from the orbital venous plexus of the animals under anesthesia with ether and examined for anti-dintrophenyl (DNP) IgG2a antibody titer in serum by the ELISA method.
The test compounds B, E, F, G and H were suspended in 0.5% aqueous methyl cellulose solution and orally administered into the animals once every day for 10 days from the day when the animals were immunized with DNP-KLH. The medium was administered into the control group.
In general terms: ELISA stands for enzyme-linked immunosorbent assay.

For experiment [3], the system named is anti-rabbit γ-globulin IgG2a antibody titer. Kind of experiment: Rat model producing antibody (anti-rabbit γ-globulin antibody titer in serum, ELISA). It is filed as in vivo, Sprague-Dawley strain rats. Particulars: dose 0.3 mg/kg oral once every day for 14 days; 14th day after immunization. The procedure: Sprague-Dawley strain rats were immunized by subcutaneously administering rabbit γ-globulin in a dose of 4 mg/rat along with Freund's complete adjuvant into the bottoms of their both hind legs. On the 14th day after the rats were immunized, blood was collected from their tail veins and examined for anti-rabbit γ-globulin antibody titer in serum by the ELISA method.
The test compounds A, B, C and D were suspended respectively in 0.5% aqueous methyl cellulose solution and orally administered once every day for 14 days from the day on which the animals were immunized with rabbit γ-globulin. The medium was administered into the control group.

In experiment [4] the test system is albuminuria in (NZB×NZW)F1 mice. Kind of experiment: Mouse model with spontaneous onset of SLE: urine protein / onset of albuminuria. It is filed as in vivo, female (NZB×NZW) F1 mice. Particulars: dose 0.03 mg/kg; for onset of albuminuria (in words): after 18 weeks of administration; for Number of animals with Concentration of Urine Protein (mg/ml) <0.3 / Number of animals with Concentration of Urine Protein (mg/ml) >0.3 / Number of animals with Concentration of Urine Protein (mg/ml) >1 / Number of animals with Concentration of Urine Protein (mg/ml) >3 / Number of animals with Concentration of Urine Protein (mg/ml) >10: after 18 weeks of administration (34-week-old), 8 animals. The text has this:
(§2) In this experiment, female (NZB×NZW) F1 mice were used. Administration of each test compound was initiated at the age of 16 weeks, and blood was collected at predetermined intervals from the orbital venous plexus of the animals under anesthesia with ether and examined for anti-DNA (single-stranded chain: ss, double stranded chain: ds) antibody titer in serum. Further, urine was collected and measured for urine protein.
The test compounds A, B and D were suspended in 0.5% aqueous methyl cellulose solution and orally administered daily once into the animals for 6 days/week for 18 weeks. The medium was administered into the control group.
The effect of each compound on the onset of albuminuria after 18 weeks of administration (in 34-week-old animals) is shown in Table 2.

A further experiment concerns anti-ss DNA antibody. Kind of experiment: Mouse model with spontaneous onset of SLE: production of anti-ss DNA antibody. It is filed as in vivo, female (NZB×NZW) F1 mice. Particulars: 0.03 mg/kg oral; after 16 weeks of administration. Here is the method:
as §2, §1

The next experiment has as its target T1, human RARγ (Homo sapiens, UniProt P13631).
T1 sequence (P13631 1-454): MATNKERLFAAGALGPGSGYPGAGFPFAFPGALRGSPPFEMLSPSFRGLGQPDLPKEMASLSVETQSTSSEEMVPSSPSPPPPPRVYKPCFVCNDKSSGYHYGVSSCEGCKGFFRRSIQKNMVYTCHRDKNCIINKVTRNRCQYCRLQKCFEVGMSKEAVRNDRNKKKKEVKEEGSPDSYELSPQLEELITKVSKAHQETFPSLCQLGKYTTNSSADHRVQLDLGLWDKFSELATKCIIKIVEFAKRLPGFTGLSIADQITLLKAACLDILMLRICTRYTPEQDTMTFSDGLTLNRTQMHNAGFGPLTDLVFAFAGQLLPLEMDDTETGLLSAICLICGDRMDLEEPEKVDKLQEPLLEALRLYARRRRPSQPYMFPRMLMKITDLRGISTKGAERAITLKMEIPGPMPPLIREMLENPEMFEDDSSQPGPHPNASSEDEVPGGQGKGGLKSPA
Kind of experiment: Transcription-promoting activity via RAR (PLAP reporter in COS-1 cells), RAR-γ. Set-up: expressed in transfected cells; host or cells: COS-1 (African green monkey kidney), transient lipofection. The conditions noted are these: Relative ED30: ED30 of all-trans-retinoic acid for each receptor = 1. It is filed as cell-based. Here is the method:
(§3) A human RAR expression vector and a secretory alkali phosphatase (PLAP) gene vector (PLAP vector) having a response sequence integrated upstream for allowing RAR-bound PLAP to be expressed depending on ligand, were tentatively introduced into COS-1 (renal cell line derived from African green monkey). The PLAP, which was produced depending on ligand and secreted into a culture liquid, was measured by chemiluminescence techniques to examine the transcription-promoting activity of each test compound. Further, the ability of the test compound to promote the transcription of each receptor subtype was compared to determine the selectivity of the compound for RAR subtype.
(§4) 2.5×10^4 COS-1 cells were plated onto a 60-mm Petri dish, and after 4 days, the cells were transformed by lipofection with 4 μg expression vector for human RARα, RARβ or RARγ and 4 μg PLAP vector. After 1 day, the cells were recovered and plated at a density of 2×10^4 cells/well on a 96-well culture plate. After 4 hours, the medium was exchanged with a charcoal treated FBS-containing medium, then a diluted solution of all-trans-retinoic acid or a test compound was added thereto, and after 36 hours, the supernatant was recovered from the cell culture. The recovered sample was treated for 10 minutes at 65° C. to eliminate unspecific activity. 15 μl of the sample was mixed with 60 μl of 28 mM sodium carbonate buffer (pH 10) and reacted with 75 μl of a chemifluorescent substrate Smilight™ (Sumitomo Metal Industries, Ltd.) at 37° C. for 30 minutes to determine the […].
(§5) The concentration (ED30) of each test compound showing 30% activity, where it was assumed that the average transcriptional activity induced by and 3 μM all-trans-retinoic acid was 100%, was determined. Then, the relative ED30 of each compound, where it was assumed that the ED30 of all-trans-retinoic acid for each receptor was 1, is shown as Relative ED30* in Tables 4-1 and 4-2.

For a further experiment, the target named is T2, human RARα (Homo sapiens, UniProt P10276).
T2 sequence (P10276 1-462): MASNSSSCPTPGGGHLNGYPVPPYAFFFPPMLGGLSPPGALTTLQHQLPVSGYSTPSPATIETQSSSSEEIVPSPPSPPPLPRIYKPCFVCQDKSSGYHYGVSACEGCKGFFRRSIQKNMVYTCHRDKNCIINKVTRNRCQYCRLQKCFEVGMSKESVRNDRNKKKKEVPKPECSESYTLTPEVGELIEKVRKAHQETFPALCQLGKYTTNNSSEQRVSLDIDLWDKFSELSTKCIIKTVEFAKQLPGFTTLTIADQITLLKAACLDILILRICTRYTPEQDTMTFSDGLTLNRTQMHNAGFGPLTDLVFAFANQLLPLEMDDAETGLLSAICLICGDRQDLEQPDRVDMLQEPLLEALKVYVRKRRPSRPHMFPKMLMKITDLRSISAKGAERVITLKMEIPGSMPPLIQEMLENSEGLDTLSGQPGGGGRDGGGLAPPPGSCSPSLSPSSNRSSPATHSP
Kind of experiment: Transcription-promoting activity via RAR (PLAP reporter in COS-1 cells), RAR-α. It is filed as cell-based. Details: expressed in transfected cells; host or cells: COS-1 (African green monkey kidney), transient lipofection. The conditions noted are these: Relative ED30: ED30 of all-trans-retinoic acid for each receptor = 1. Here is the method:
as §3, §4, §5

For another experiment, the target named is T3, human RARβ (Homo sapiens, UniProt P10826).
T3 sequence (P10826 1-455): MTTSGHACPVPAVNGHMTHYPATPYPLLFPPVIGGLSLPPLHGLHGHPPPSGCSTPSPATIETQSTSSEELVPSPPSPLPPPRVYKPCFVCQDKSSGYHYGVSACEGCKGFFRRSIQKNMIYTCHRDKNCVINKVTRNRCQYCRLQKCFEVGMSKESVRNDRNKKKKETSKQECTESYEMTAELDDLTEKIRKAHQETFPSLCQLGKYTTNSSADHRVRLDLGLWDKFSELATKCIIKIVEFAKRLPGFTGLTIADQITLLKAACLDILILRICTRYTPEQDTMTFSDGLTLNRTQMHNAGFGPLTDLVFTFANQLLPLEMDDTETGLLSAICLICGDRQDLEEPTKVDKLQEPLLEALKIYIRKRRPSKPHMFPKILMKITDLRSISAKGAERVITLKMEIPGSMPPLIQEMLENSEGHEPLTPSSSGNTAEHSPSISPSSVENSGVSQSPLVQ
Kind of experiment: Transcription-promoting activity via RAR (PLAP reporter in COS-1 cells), RAR-β. The conditions noted are these: Relative ED30: ED30 of all-trans-retinoic acid for each receptor = 1. It is filed as cell-based. Details: expressed in transfected cells; host or cells: COS-1 (African green monkey kidney), transient lipofection. The procedure:
as §3, §4, §5

In the case of `O=C(O)c1ccc(-c2ccc(-c3cc4c(C(F)(F)F)ccc(F)c4o3)[nH]2)cc1` [Compound B, 4-{2-[5-(7-fluoro-4-trifluoromethylbenzofuran-2-yl)pyrrolyl]}benzoic acid], in experiment [1], the “Degree of Inhibition of Albuminuria (%)” value turned out to be 90.7%. In addition, the “effect on anti-DNP IgG2a” value in experiment [2] is “significantly inhibited”. Besides, the “effect on anti-rabbit γ-globulin IgG2a antibody titer” value in experiment [3] is recorded as “inhibited significantly”. Besides, in experiment [4], the “onset of albuminuria (in words)” value is reported as “complete inhibition”, the “Number of animals with Concentration of Urine Protein (mg/ml) <0.3” value came to 8, the “Number of animals with Concentration of Urine Protein (mg/ml) >0.3” value came to 0 and the “Number of animals with Concentration of Urine Protein (mg/ml) >1” value is given as 0. Further, in experiment [4], the “Number of animals with Concentration of Urine Protein (mg/ml) >3” value came out at 0 and the “Number of animals with Concentration of Urine Protein (mg/ml) >10” value is 0. Further, the “inhibition of production of anti-ss DNA antibody (in words)” value in the experiment on anti-ss DNA antibody is given as “significant inhibition”.
On to `Cc1ccc(C)c2c(F)c(-c3ccc(-c4ccc(C(=O)O)cc4)[nH]3)oc12` [Compound C, 4-{2-[5-(3-fluoro-4,7-dimethylbenzofuran-2-yl)pyrrolyl]}benzoic acid], for which the “Degree of Inhibition of Albuminuria (%)” value in experiment [1] came out at 87.7%. Moreover, in experiment [3], the “effect on anti-rabbit γ-globulin IgG2a antibody titer” value is reported as “inhibited significantly”.
On to `CCc1ccc(C)c2cc(-c3ccc(-c4ccc(C(=O)O)cc4)[nH]3)oc12` [Compound D, 4-{2-[5-(7-ethyl-4-methylbenzofuran-2-yl)pyrrolyl]}benzoic acid], for which the “Degree of Inhibition of Albuminuria (%)” value in experiment [1] turned out to be 80.3%. For the same compound, in experiment [3], the “effect on anti-rabbit γ-globulin IgG2a antibody titer” value is given as “inhibited significantly”. Besides, in experiment [4], the “onset of albuminuria (in words)” value was “complete inhibition”, the “Number of animals with Concentration of Urine Protein (mg/ml) <0.3” value was 8, the “Number of animals with Concentration of Urine Protein (mg/ml) >0.3” value came to 0 and the “Number of animals with Concentration of Urine Protein (mg/ml) >1” value is given as 0. In experiment [4], the “Number of animals with Concentration of Urine Protein (mg/ml) >3” value came to 0 and the “Number of animals with Concentration of Urine Protein (mg/ml) >10” value is on record as 0.
Turning to `CC1(C)CCC(C)(C)c2nc(-c3ccc(-c4ccc(C(=O)O)cc4)[nH]3)cnc21` [drawing 26], at human RARγ, the “Transcription promoting activity ED30* RAR-γ” value is listed as 1.9. For the same compound, the “Transcription promoting activity ED30* RAR-α” value on human RARα came out at 0.21. Further, the “Transcription promoting activity ED30* RAR-β” value at human RARβ is recorded as 1.4.
Taken in the same sequence, the figures for `CC1(C)CCCc2ncc(-c3ccc(-c4ccc(C(=O)O)cc4)[nH]3)nc21` [drawing 27] were 170, 0.2 and 11.
The like results for `CC1CCCN(C)c2ncc(-c3ccc(-c4ccc(C(=O)O)cc4)[nH]3)nc21` (centres unmarked) [drawing 28] were, in that order, 20, 1.4 and 7.4.
Taken in the same sequence, the figures for `CCn1nc(-c2ccc(-c3ccc(C(=O)O)cc3)[nH]2)cc1C(C)C` [drawing 29] were 89, 0.85 and 14.
Take `COCc1cc2c(cc1-c1ccc(-c3ccc(C(=O)O)cc3)[nH]1)C(C)(C)CCC2(C)C` [drawing 30]: the “Transcription promoting activity ED30* RAR-γ” value at human RARγ is given as 62. In addition, the “Transcription promoting activity ED30* RAR-α” value on human RARα is listed as 1.9. On human RARβ, the “Transcription promoting activity ED30* RAR-β” value came out at 29.
Consider `C[Si](C)(C)c1cc(C(=O)Nc2ccc(C(=O)O)cc2)cc([Si](C)(C)C)c1` [drawing 31], for which the “Transcription promoting activity ED30* RAR-γ” value at human RARγ was determined as 7800. Moreover, the “Transcription promoting activity ED30* RAR-α” value at human RARα turned out to be 6. Further, the “Transcription promoting activity ED30* RAR-β” value at human RARβ came out at 420.
